Assays:
Assay type in all cases: in vivo
[1] = tested on: Cirsium arvense (Canada thistle); test: Greenhouse postemergence visual injury, Canada thistle (CIRAR); settings: Example 6
From the text: (§1) Seeds of the desired test plant species were planted in a 90:10% v/v (volume/volume) mixture of PRO-MIX® BX (Premier Tech Horticulture, Quakertown, PA, USA) and PROFILE® GREENS GRADE™ (Profile Products LLC, Buffalo Grove, IL, USA) planting mixture, which typically has a pH of 5.2 to 6.2 and an organic matter content of at least 50 percent, in plastic pots with a surface area of 103.2 square centimeters (cm^2). When required to ensure good germination and healthy plants, a fungicide treatment and/or other chemical or physical treatment was applied. The plants were grown for 7-36 days (d) in a greenhouse with an approximate 14-hour (h) photo-period which was maintained at about 23° C. during the day and 22° C. during the night. Nutrients and water were added on a regular basis and supplemental lighting was provided with overhead metal halide 1000-Watt lamps as necessary. The plants were employed for testing when they reached the second or third true leaf stage.
(§2) Emulsifiable concentrates of each of each pyridine carboxylate herbicide (Compound A or Compound B) were prepared at 100 grams acid equivalent per liter (g ae/L). An aliquot of each emulsifiable concentrate was placed in a 25 mL glass vial and diluted with an aqueous mixture of 1.25% (v/v) ACTIROB® B esterified rapeseed oil (Bayer Crop Science, Research Triangle Park, NC, USA) or MSO® Concentrate with LECI-TECH® methylated soybean oil (Loveland Products, Loveland, CO, USA) to obtain concentrated stock solutions at the highest application rate for each herbicide, based upon a 12 milliliter (mL) application volume at a rate of 187 liters per hectare (L/ha). The concentrated stock solutions were further diluted with an aqueous mixture of 1.25% v/v ACTIROB® B or MSO® Concentrate with LECI-TECH® to obtain stock solutions at reduced application rates for each herbicide. Spray solutions of the herbicide combinations (Compound A or Compound B plus safener) were prepared by adding weighed amounts or aliquots of the safener to the stock solutions of Compound A or Compound B to form 12-mL spray solutions in two-way combinations.
(§3) The spray solutions were applied to the plant material with an overhead Mandel track sprayer equipped with 8002E nozzles calibrated to deliver 187 L/ha over an application area of 0.503 square meters (m^2) at a spray height of 18 inches (43 centimeters (cm)) above the average plant canopy. […]
(§4) The treated plants and control plants were placed in a greenhouse as described above and watered by sub-irrigation to prevent wash-off of the test compounds. After 20-22 d, the condition of the test plants as compared with that of the control plants was determined visually and scored on a scale of 0 to 100 percent where 0 corresponds to no injury and 100 corresponds to complete kill.

[2] = tested on: Hordeum vulgare (spring barley); test: Greenhouse postemergence visual injury, spring barley (HORVS)
From the text: as §1, §2
(§5) The spray solutions were applied to the plant material with an overhead Mandel track sprayer equipped with 8002E nozzles calibrated to deliver 187 L/ha over an application area of 0.503 square meters (m^2) at a spray height of 18 inches (43 centimeters (cm)) above the average plant canopy. Control plants were sprayed in the same manner with the solvent blank. All herbicide (component a) application rates are given as “g ae/ha” and all safener (component b) application rates are given as “g ai/ha.”
as §4

[3] = tested on: Brassica napus (winter rape); test: Greenhouse postemergence visual injury, winter rape (BRSNW)
From the text: as §1, §2, §5, §4

[4] = tested on: Ambrosia artemisiifolia (common ragweed); test: Greenhouse postemergence visual injury, common ragweed (AMBEL); settings: Example 7
From the text: as §1, §2, §3, §4

[5] = tested on: Kochia scoparia (herbicide-resistant kochia); test: Greenhouse postemergence visual injury, herbicide-resistant kochia (KCHSC-R); settings: Example 6
From the text: as §1, §2, §3, §4

Zea mays (maize) = test: Greenhouse postemergence visual injury, maize (ZEAMX)
From the text: as §1, §2, §5, §4

[6] = tested on: Triticum aestivum (winter wheat); test: Greenhouse postemergence visual injury, winter wheat (TRZAW)
From the text: as §1, §2, §5, §4

[7] = tested on: Viola tricolor (wild pansy); test: Greenhouse postemergence visual injury, wild pansy (VIOTR); settings: Example 6
From the text: as §1, §2, §3, §4

[8] = tested on: Amaranthus tamariscinus (common water hemp); test: Greenhouse postemergence visual injury, common water hemp (AMATA); settings: Example 7
From the text: as §1, §2, §3, §4

[9] = tested on: Triticum aestivum (spring wheat); test: Greenhouse postemergence visual injury, spring wheat (TRZAS)
From the text: as §1, §2, §5, §4

Kochia scoparia (kochia) = test: Greenhouse postemergence visual injury, kochia (KCHSC); settings: Example 6
From the text: as §1, §2, §3, §4

[10] = tested on: Abutilon theophrasti (velvetleaf); test: Greenhouse postemergence visual injury, velvetleaf (ABUTH); settings: Example 6
From the text: as §1, §2, §3, §4

[11] = tested on: Sorghum halepense (Johnson grass); test: Greenhouse postemergence visual injury, Johnson grass (SORHA)
From the text: as §1, §2, §5, §4

[12] = tested on: Sorghum vulgare (sorghum); test: Greenhouse postemergence visual injury, sorghum (SORVU); settings: Example 5
From the text: as §1, §2, §5, §4

[13] = tested on: Ipomoea hederacea (ivyleaf morningglory); test: Greenhouse postemergence visual injury, ivyleaf morningglory (IPOHE); settings: Example 6
From the text: as §1, §2, §3, §4

[14] = tested on: Lolium multiflorum (Italian ryegrass); test: Greenhouse postemergence visual injury, Italian ryegrass (LOLMU)
From the text: as §1, §2, §5, §4

[15] = isoxadifen-ethyl 10 g/ha, Example 1
[16] = isoxadifen-ethyl 20 g/ha, Example 1
[17] = isoxadifen-ethyl 20 g/ha, Example 2
[18] = isoxadifen-ethyl 40 g/ha, Example 1
[19] = isoxadifen-ethyl 40 g/ha, Example 2
[20] = isoxadifen-ethyl 80 g/ha, Example 2
[21] = isoxadifen-ethyl 120 g/ha, Example 2
[22] = isoxadifen-ethyl 20 g/ha, Example 6
[23] = isoxadifen-ethyl 40 g/ha, Example 6
[24] = isoxadifen-ethyl 80 g/ha, Example 6
[25] = isoxadifen-ethyl 10 g/ha, Example 7
[26] = isoxadifen-ethyl 20 g/ha, Example 7

## CCOC(=O)C1=NOC(c2ccccc2)(c2ccccc2)C1 [Isoxadifen-ethyl, isoxadifen-ethyl]
[1]; isoxadifen-ethyl 20 g/ha
  % visual injury, Ob: 0%
[1]; isoxadifen-ethyl 40 g/ha
  % visual injury, Ob: 0%
[1]; isoxadifen-ethyl 80 g/ha
  % visual injury, Ob: 0%
[2]; [15]
  % visual injury, Ob: 0%
[2]; [16]
  % visual injury, Ob: 0%
[2]; [17]
  % visual injury, Ob: 0%
[2]; [18]
  % visual injury, Ob: 0%
[2]; [19]
  % visual injury, Ob: 0%
[2]; [20]
  % visual injury, Ob: 0%
[2]; [21]
  % visual injury, Ob: 0%
[3]; [15]
  % visual injury, Ob: 0%
[3]; [16]
  % visual injury, Ob: 0%
[3]; [22]
  % visual injury, Ob: 0%
[3]; [18]
  % visual injury, Ob: 0%
[3]; [23]
  % visual injury, Ob: 0%
[3]; [24]
  % visual injury, Ob: 0%
[4]; isoxadifen-ethyl 10 g/ha
  % visual injury, Ob: 0%
[4]; isoxadifen-ethyl 20 g/ha
  % visual injury, Ob: 0%
[5]; isoxadifen-ethyl 20 g/ha
  % visual injury, Ob: 0%
[5]; isoxadifen-ethyl 40 g/ha
  % visual injury, Ob: 0%
[5]; isoxadifen-ethyl 80 g/ha
  % visual injury, Ob: 0%
Zea mays (maize); [25]
  % visual injury, Ob: 0%
Zea mays (maize); isoxadifen-ethyl 20 g/ha, Example 5
  % visual injury, Ob: 0%
Zea mays (maize); [22]
  % visual injury, Ob: 0%
Zea mays (maize); [26]
  % visual injury, Ob: 0%
Zea mays (maize); isoxadifen-ethyl 40 g/ha, Example 5
  % visual injury, Ob: 0%
Zea mays (maize); [23]
  % visual injury, Ob: 0%
Zea mays (maize); isoxadifen-ethyl 80 g/ha, Example 5
  % visual injury, Ob: 0%
Zea mays (maize); [24]
  % visual injury, Ob: 0%
Zea mays (maize); isoxadifen-ethyl 120 g/ha, Example 5
  % visual injury, Ob: 0%
[6]; [17]
  % visual injury, Ob: 0%
[6]; [22]
  % visual injury, Ob: 0%
[6]; [19]
  % visual injury, Ob: 0%
[6]; [23]
  % visual injury, Ob: 0%
[6]; [20]
  % visual injury, Ob: 0%
[6]; [24]
  % visual injury, Ob: 0%
[6]; [21]
  % visual injury, Ob: 0%
[7]; isoxadifen-ethyl 20 g/ha
  % visual injury, Ob: 0%
[7]; isoxadifen-ethyl 40 g/ha
  % visual injury, Ob: 0%
[7]; isoxadifen-ethyl 80 g/ha
  % visual injury, Ob: 0%
[8]; isoxadifen-ethyl 10 g/ha
  % visual injury, Ob: 0%
[8]; isoxadifen-ethyl 20 g/ha
  % visual injury, Ob: 0%
[9]; [15]
  % visual injury, Ob: 0%
[9]; [16]
  % visual injury, Ob: 0%
[9]; [17]
  % visual injury, Ob: 0%
[9]; isoxadifen-ethyl 20 g/ha, Example 4
  % visual injury, Ob: 0%
[9]; [18]
  % visual injury, Ob: 0%
[9]; [19]
  % visual injury, Ob: 0%
[9]; isoxadifen-ethyl 40 g/ha, Example 4
  % visual injury, Ob: 0%
[9]; [20]
  % visual injury, Ob: 0%
[9]; isoxadifen-ethyl 80 g/ha, Example 4
  % visual injury, Ob: 0%
[9]; [21]
  % visual injury, Ob: 0%
[9]; isoxadifen-ethyl 120 g/ha, Example 4
  % visual injury, Ob: 0%
Kochia scoparia (kochia); isoxadifen-ethyl 20 g/ha
  % visual injury, Ob: 0%
Kochia scoparia (kochia); isoxadifen-ethyl 40 g/ha
  % visual injury, Ob: 0%
Kochia scoparia (kochia); isoxadifen-ethyl 80 g/ha
  % visual injury, Ob: 0%
[10]; isoxadifen-ethyl 20 g/ha
  % visual injury, Ob: 0%
[10]; isoxadifen-ethyl 40 g/ha
  % visual injury, Ob: 0%
[10]; isoxadifen-ethyl 80 g/ha
  % visual injury, Ob: 0%
[11]; [25]
  % visual injury, Ob: 0%
[11]; [22]
  % visual injury, Ob: 0%
[11]; [26]
  % visual injury, Ob: 0%
[11]; [23]
  % visual injury, Ob: 0%
[11]; [24]
  % visual injury, Ob: 0%
[12]; isoxadifen-ethyl 20 g/ha
  % visual injury, Ob: 0%
[12]; isoxadifen-ethyl 40 g/ha
  % visual injury, Ob: 0%
[12]; isoxadifen-ethyl 80 g/ha
  % visual injury, Ob: 0%
[12]; isoxadifen-ethyl 120 g/ha
  % visual injury, Ob: 0%
[13]; isoxadifen-ethyl 20 g/ha
  % visual injury, Ob: 0%
[13]; isoxadifen-ethyl 40 g/ha
  % visual injury, Ob: 0%
[13]; isoxadifen-ethyl 80 g/ha
  % visual injury, Ob: 0%
[14]; [25]
  % visual injury, Ob: 0%
[14]; [22]
  % visual injury, Ob: 0%
[14]; [26]
  % visual injury, Ob: 0%
[14]; [23]
  % visual injury, Ob: 0%
[14]; [24]
  % visual injury, Ob: 0%

## N#CCOC(=O)c1nc(-c2ccc3cc[nH]c3c2F)c(F)c(N)c1Cl [Compound A, cyanomethyl 4-amino-3-chloro-5-fluoro-6-(7-fluoro-1H-indol-6-yl)pyridine-2-carboxylate]
[1]; Compound A 20 g/ha
  % visual injury, Ob: 95%
[2]; Compound A 20 g/ha, Example 1
  % visual injury, Ob: 0%
[2]; Compound A 40 g/ha, Example 2
  % visual injury, Ob: 17%
[3]; Compound A 20 g/ha, Example 1
  % visual injury, Ob: 95%
[3]; Compound A 20 g/ha, Example 6
  % visual injury, Ob: 85%
[4]; Compound A 10 g/ha
  % visual injury, Ob: 100%
[4]; Compound A 20 g/ha
  % visual injury, Ob: 100%
[5]; Compound A 20 g/ha
  % visual injury, Ob: 90%
Zea mays (maize); Compound A 10 g/ha, Example 7
  % visual injury, Ob: 48%
Zea mays (maize); Compound A 20 g/ha, Example 6
  % visual injury, Ob: 13%
Zea mays (maize); Compound A 20 g/ha, Example 7
  % visual injury, Ob: 60%
Zea mays (maize); Compound A 40 g/ha, Example 5
  % visual injury, Ob: 55%
[6]; Compound A 20 g/ha, Example 6
  % visual injury, Ob: 25%
[6]; Compound A 40 g/ha, Example 2
  % visual injury, Ob: 25%
[7]; Compound A 20 g/ha
  % visual injury, Ob: 30%
[8]; Compound A 10 g/ha
  % visual injury, Ob: 98%
[8]; Compound A 20 g/ha
  % visual injury, Ob: 100%
[9]; Compound A 20 g/ha, Example 1
  % visual injury, Ob: 25%
[9]; Compound A 40 g/ha, Example 2
  % visual injury, Ob: 23%
[9]; Compound A 40 g/ha, Example 4
  % visual injury, Ob: 30%
Kochia scoparia (kochia); Compound A 20 g/ha
  % visual injury, Ob: 97%
[10]; Compound A 20 g/ha
  % visual injury, Ob: 95%
[11]; Compound A 10 g/ha, Example 7
  % visual injury, Ob: 10%
[11]; Compound A 20 g/ha, Example 6
  % visual injury, Ob: 0%
[11]; Compound A 20 g/ha, Example 7
  % visual injury, Ob: 60%
[12]; Compound A 40 g/ha
  % visual injury, Ob: 50%
[13]; Compound A 20 g/ha
  % visual injury, Ob: 0%
[14]; Compound A 10 g/ha, Example 7
  % visual injury, Ob: 18%
[14]; Compound A 20 g/ha, Example 6
  % visual injury, Ob: 5%
[14]; Compound A 20 g/ha, Example 7
  % visual injury, Ob: 60%

Reference: patent US12029217B2, “Safened compositions comprising pyridine carboxylate herbicides and isoxadifen” (Corteva Agriscience LLC, priority 2018, dated 2024)
